This is an account of results in patent US20250136619A1, “HETEROBIFUNCTIONAL COMPOUNDS AND THEIR USE IN TREATING DISEASE” (HALDA THERAPEUTICS OPCO, INC., priority 2021, published 2025).

Where two headings read alike, the source gives them in different places.

In test [1] the target is BTK (Homo sapiens (Human), UniProt Q06187). The test can be described thus: KdELECT assay for binding affinity to BTK. The protocol:
(§1) Compounds were tested using a KdELECT assay. Kinase-tagged T7 phage strains were prepared in an E. coli host derived from the BL21 strain. E. coli were grown to log-phase and infected with T7 phage and incubated with shaking at 32° C. until lysis. The lysates were centrifuged and filtered to remove cell debris. The remaining kinases were produced in HEK-293 cells and subsequently tagged with DNA for qPCR detection. Streptavidin-coated magnetic beads were treated with biotinylated small molecule ligands for 30 minutes at room temperature to generate affinity resins for kinase assays. The liganded beads were blocked with excess biotin and washed with blocking buffer (SeaBlock (Pierce), 1% BSA, 0.05% Tween 20, 1 mM DTT) to remove unbound ligand and to reduce non-specific binding. Binding reactions were assembled by combining kinases, liganded affinity beads, and test compounds in 1× binding buffer (20% SeaBlock, 0.17×PBS, 0.05% Tween 20, 6 mM DTT). Test compounds were prepared as 111X stocks in 100% DMSO. Kd values were determined using an 11-point 3-fold compound dilution series with three DMSO control points. All compounds for Kd measurements are distributed by acoustic transfer (non-contact dispensing) in 100% DMSO. The compounds were then diluted directly into the assays such that the final concentration of DMSO was 0.9%. All reactions performed in polypropylene 384-well plate. Each was a final volume of 0.02 mL. The assay plates were incubated at room temperature with shaking for 1 hour and the affinity beads were washed with wash buffer (1×PBS, 0.05% Tween 20). The beads were then re-suspended in elution buffer (1×PBS, 0.05% Tween 20, 0.5 μM nonbiotinylated affinity ligand) and incubated at room temperature with shaking for 30 minutes. The kinase concentration in the eluates was measured by qPCR.

Test [2] deals with HeLa cells. As to the kind of experiment: Cellular growth inhibition assay (CellTiter-Glo), HeLa cells. In kind it is cell-based. The note with it: HeLa cells, three days of compound treatment, CellTiter-Glo 2.0, read-out: CTG HELA GI50. The protocol:
(§2) HEK293 and HeLa cells were cultured in DMEM medium supplemented with 10% fetal bovine serum and 1% Penn/Strep. Cells were seeded in white 384-well plates at 500 cells/well in […] complete medium. Following seeding, plates were spun at 300×g for three minutes and cultured at 37° C. with 5% CO2 in a humidified tissue culture incubator.
(§3) After 24 hours, compounds were titrated in 100% DMSO and diluted in complete cell culture medium. […] of compound/media mixture was added to cells to bring total volume in well to […]. DMSO alone was used as a negative control. Plates were then spun at 300×g for three minutes and stored at 37° C. with 5% CO2 for three days.
(§4) On Day 0 and Day 3 of compound treatment, cell viability was quantified with CellTiter-Glo 2.0 reagent (Promega). After equilibrating microplates at room temperature for 30 minutes, 25 μL CellTiter-Glo 2.0 reagent was dispensed into each well to bring total volume to […]. Plates were mixed on shaker for 2 minutes at 500 rpm, followed by a 10-minute incubation at room temperature. Following a quick spin, luminescence readings were measured with an En Vision Plate Reader. Data was normalized to DMSO treated Day 0 and Day 3 readings. A four-parameter non-linear regression curve fit was applied to dose-response data in GraphPad Prism data analysis software to determine the half maximal growth inhibitory concentration (GI50) for each compound.

The subject of test [3] is HEK293 cells. The test can be described thus: Cellular growth inhibition assay (CellTiter-Glo), HEK293 cells. The following applies: HEK293 cells, three days of compound treatment, CellTiter-Glo 2.0, read-out: CTG HEK293 GI50. In kind it is cell-based. The protocol:
as §2, §3, §4

Test [4] deals with CDK9 (Homo sapiens (Human), UniProt P50750). The test can be described thus: KdELECT assay for binding affinity to CDK9. Here is the method:
as §1, with “KdELECT.” for “KdELECT assay.”, “1×binding” for “1× binding”

BTK, sequence (Q06187 whole entry): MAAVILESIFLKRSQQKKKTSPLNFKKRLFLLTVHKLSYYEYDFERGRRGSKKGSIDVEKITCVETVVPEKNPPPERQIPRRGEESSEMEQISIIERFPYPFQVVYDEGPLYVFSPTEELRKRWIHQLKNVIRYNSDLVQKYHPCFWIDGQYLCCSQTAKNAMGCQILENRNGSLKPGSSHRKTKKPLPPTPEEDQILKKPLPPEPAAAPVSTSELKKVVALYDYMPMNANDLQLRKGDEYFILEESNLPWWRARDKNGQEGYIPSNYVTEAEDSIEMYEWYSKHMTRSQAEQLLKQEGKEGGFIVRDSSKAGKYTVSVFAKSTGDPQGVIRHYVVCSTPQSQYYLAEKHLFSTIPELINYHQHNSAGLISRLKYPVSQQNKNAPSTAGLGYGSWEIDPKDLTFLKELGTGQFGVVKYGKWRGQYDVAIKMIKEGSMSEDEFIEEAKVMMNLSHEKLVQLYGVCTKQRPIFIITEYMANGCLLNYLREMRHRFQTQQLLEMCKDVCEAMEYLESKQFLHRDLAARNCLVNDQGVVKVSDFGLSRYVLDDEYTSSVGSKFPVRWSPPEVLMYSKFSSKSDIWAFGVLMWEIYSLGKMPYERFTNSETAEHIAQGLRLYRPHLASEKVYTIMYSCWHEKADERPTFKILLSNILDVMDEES
CDK9, sequence (P50750 whole entry): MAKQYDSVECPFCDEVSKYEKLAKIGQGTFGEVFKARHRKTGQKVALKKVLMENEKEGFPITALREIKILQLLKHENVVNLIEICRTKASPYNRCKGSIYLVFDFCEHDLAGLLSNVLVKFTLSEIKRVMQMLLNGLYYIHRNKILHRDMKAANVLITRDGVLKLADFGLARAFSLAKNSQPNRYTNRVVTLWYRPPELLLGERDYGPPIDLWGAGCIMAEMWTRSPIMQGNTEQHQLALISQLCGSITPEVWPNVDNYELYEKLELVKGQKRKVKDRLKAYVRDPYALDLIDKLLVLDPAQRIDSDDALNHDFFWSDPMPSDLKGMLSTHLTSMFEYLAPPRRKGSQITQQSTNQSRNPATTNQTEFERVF

A word on the Kd: it is the free concentration of one partner at which half of the binding sites on the other are occupied at equilibrium, for simple one-to-one binding. Lower therefore signals higher affinity. As to `CC[C@@H]1C(=O)N(C)c2cnc(Nc3ccc(C(=O)NCCOCCOCCOCCOCCOCCOCCOC/C=C/C(=O)N4CCC[C@@H](n5nc(-c6ccc(Oc7ccccc7)cc6)c6c(N)ncnc65)C4)cc3OC)nc2N1C1CCCC1` [Compound I-39, N-[2-[2-[2-[2-[2-[2-[2-[(E)-4-[(3R)-3-[4-amino-3-(4-phenoxyphenyl)pyrazolo[3,4-d]pyrimidin-1-yl]-1-piperidyl]-4-oxo-but-2-enoxy]ethoxy]ethoxy]ethoxy]ethoxy]ethoxy]ethoxy]ethyl]-4-[[(7R)-8-cyclopentyl-7-ethyl-5-methyl-6-oxo-7H-pteridin-2-yl]amino]-3-methoxy-benzamide], the Kd in test [1] was less than 50 nM.
One may read the GI50 as the concentration that inhibits growth by half. In the case of `CCc1cnn2c(NCc3ccc(OCCOCCOCCOCCOCCOCCOCCOCCOCCN(C)C/C=C/C(=O)N4CCC[C@@H](n5nc(-c6ccc(Oc7ccccc7)cc6)c6c(N)ncnc65)C4)nc3)cc(N3CCCC[C@H]3CCO)nc12` [Compound I-48], the GI50 in test [2] (Homo sapiens, 72 h) was 1500 to 5000 nM; in test [3] (Homo sapiens, 72 h), 1500 to 5000 nM. Besides, the Kd in test [1] is less than 50 nM.
Regarding `CN(OCCOCCOCCOCCOCCOCCOCCOC/C=C/C(=O)N1CCC[C@@H](n2nc(-c3ccc(Oc4ccccc4)cc3)c3c(N)ncnc32)C1)C(=O)N1N=C(c2cc(F)ccc2F)SC1(CCCN)c1ccccc1` (stereo partly drawn) [Compound I-51], the GI50 is 500 to 1500 nM in test [2] (Homo sapiens, 72 h) and 1500 to 5000 nM in test [3] (Homo sapiens, 72 h). Further, in test [1], the equilibrium dissociation constant (Kd) is less than 50 nM.
As for `C=CC(=O)N1CCN([C@@H](CC2CC2)c2ccc([C@H](C)Nc3ncc4c(n3)N(CCOCCOCCOc3ccc(CNc5cc(N6CCCC[C@H]6CCO)nc6c(CC)cnn56)cn3)C(=O)OC4)cc2)CC1` [Compound I-55], the Kd in test [4] lay within 50 to 500 nM.
As to `C=CC(=O)N1CCN([C@@H](CC2CC2)c2ccc([C@H](C)Nc3ncc4c(n3)N(CCOCCOCCn3cc(CNc5cc(N6CCCC[C@H]6CCO)nc6c(CC)cnn56)ccc3=O)C(=O)OC4)cc2)CC1` [Compound I-56], the Kd in test [4] lay in the range of 50 to 500 nM.
Still for that read-out and setting: to `C=CC(=O)N1CCN([C@@H](CC2CC2)c2ccc([C@H](C)Nc3ncc4c(n3)N(CCOCCOCCOCCOCCOCCOCCOc3ccc(CNc5cc(N6CCCC[C@H]6CCO)nc6c(CC)cnn56)cn3)C(=O)OC4)cc2)CC1` [Compound I-83] belongs less than 50 nM; to `C=CC(=O)N1CCN([C@@H](CC2CC2)c2ccc([C@H](C)Nc3ncc4c(n3)N(CCOCCOCCOCCOCCOCCOCCNS(=O)(=O)c3ccc(Nc5ncc(Br)c(Nc6cccc(F)c6C(N)=O)n5)cc3)C(=O)OC4)cc2)CC1` [Compound I-86, 2-[[5-bromo-2-[4-[2-[2-[2-[2-[2-[2-[2-[7-[[(1S)-1-[4-[(1S)-2-cyclopropyl-1-(4-prop-2-enoylpiperazin-1-yl)ethyl]phenyl]ethyl]amino]-2-oxo-4H-pyrimido[4,5-d][1,3]oxazin-1-yl]ethoxy]ethoxy]ethoxy]ethoxy]ethoxy]ethoxy]ethylsulfamoyl]anilino]pyrimidin-4-yl]amino]-6-fluoro-benzamide], 500 to 2500 nM.
Same read-out and setting: with `C=CC(=O)N1CCN([C@@H](CC2CC2)c2ccc([C@H](C)Nc3ncc4c(n3)N(CCOCCOCCOCCOCCOCCOCCn3cc(CNc5cc(N6CCCC[C@H]6CCO)nc6c(CC)cnn56)ccc3=O)C(=O)OC4)cc2)CC1` [Compound I-87] the figure was less than 50 nM.
`CCc1cnn2c(NCc3ccc(OCCOCCOCCNS(=O)(=O)c4cc(F)cc(N(C(=O)[C@@H]5CCC(=O)N5c5cc(C#N)ccn5)C(C(=O)NC5CC(F)(F)C5)c5ccccc5Cl)c4)nc3)cc(N3CCCC[C@H]3CCO)nc12` (stereo partly drawn) [Compound I-92]: the GI50 in test [2] and in test [3] was less than 500 nM throughout. Moreover, in test [4], the Kd was in the range of 500 to 2500 nM.
